Test results taken from patent publication US8952010B2, “Amino group-containing pyrrolidinone derivative” (Daiichi Sankyo Company, Limited, priority 2011, dated 2015).
≈ marks a conversion by molar mass, not a printed value.

System: MRSA DB00026
Experiment: Measurement of antibacterial activity (MIC), standard methods of the Japanese Society of Chemotherapy
Type: cell-based, methicillin-resistant Staphylococcus aureus
Settings: Staphylococcus aureus; bacteria: MRSA DB00026
Protocol: The measurement method of antibacterial activity of the compound of the present invention was carried out in accordance with the standard methods specified by the Japanese Society of Chemotherapy, and the results are shown in MIC (μg/mL) (Table 1).

SMILES	MIC [mg/L]
COc1ccc2ncc(=O)n(CCCCNC3CC(=O)N(c4ccc5c(c4)NC(=O)CO5)C3)c2c1 (stereo not shown) [Example 1, 6-(4-{[4-(7-Methoxy-2-oxoquinoxalin-1(2H)-yl)butyl]amino}-2-oxopyrrolidin-1-yl)-2H-1,4-benzoxazin-3(4H)-one]	0.12 (≈ 0.251 µM)
COc1ccc2ncc(=O)n(CCNC[C@H]3CC(=O)N(c4ccc5c(n4)NC(=O)CO5)C3)c2c1 [Example 19, 6-[(4R)-4-({[2-(7-Methoxy-2-oxoquinoxalin-1(2H)-yl)ethyl]amino}methyl)-2-oxopyrrolidin-1-yl]-2H-pyrido[3,2-b][1,4]oxazin-3(4H)-one]	≤ 0.06
COc1ccc2ncc(=O)n(CC(O)CNC[C@H]3CC(=O)N(c4ccc5c(n4)NC(=O)CO5)C3)c2n1 (stereo partly drawn) [Example 22, 6-[(4R)-4-({[2-Hydroxy-3-(6-methoxy-3-oxopyrido[2,3-b]pyrazin-4(3H)-yl)propyl]amino}methyl)-2-oxopyrrolidin-1-yl)-2H-pyrido[3,2-b][1,4]oxazin-3(4H)-one]	0.25 (≈ 0.505 µM)
COc1ccc2ncc(=O)n(CC(F)CNC[C@H]3CC(=O)N(c4ccc5c(c4)NC(=O)CO5)C3)c2n1 (stereo partly shown) [Example 23]	≤ 0.06

Next, values leading:

MIC [mg/L]	SMILES
≤ 0.06	COc1ccc2ncc(=O)n(CCCNC3CC(=O)N(c4ccc5c(c4)NC(=O)CO5)C3)c2c1 (stereo not shown) [Example 2, 6-(4-{[3-(7-Methoxy-2-oxoquinoxalin-1(2H)-yl)propyl]amino}-2-oxopyrrolidin-1-yl)-2H-1,4-benzoxazin-3(4H)-one]
≤ 0.06	COc1ccc2ncc(=O)n(CCCCNC3CC(=O)N(c4ccc5c(c4)NC(=O)CO5)C3)c2n1 (stereo not shown) [Example 15, 6-Methoxy-4-(4-{[5-oxo-1-(3-oxo-3,4-dihydro-2H-1,4-benzoxazin-6-yl)pyrrolidin-3-yl]amino}butyl)pyrido[2,3-b]pyrazin-3(4H)-one]
≤ 0.06	COc1ccc2ncc(=O)n(CCNC[C@H]3CC(=O)N(c4ccc5c(c4)NC(=O)CO5)C3)c2c1 [Example 16, 6-[(4R)-4-({[2-(7-Methoxy-2-oxoquinoxalin-1(2H)-yl)ethyl]amino}methyl)-2-oxopyrrolidin-1-yl]-2H-1,4-benzoxazin-3(4H)-one]
